Data published in patent US10563263B2, “Genetic polymorphisms associated with statin response and cardiovascular diseases, methods of detection and uses thereof” (CELERA CORPORATION, priority 2010, dated 2020).

Test system: CVD (CHD or stroke)
Assay: Meta-analysis of CARE and WOSCOPS combined, synergy index, CVD endpoint
Type: in vivo, human
From the text: Tables 4-5 provide meta-analyses of CARE and WOSCOPS combined (2nd section of each table) for two endpoints (CHD and CVD) and three genetic models (dominant, recessive, and additive), as well as logistic regression analyses of CARE (3rd section of each table) and WOSCOPS (4th section of each table) individually.
Tables 12 and 17 provide results of meta-analysis of the CARE and WOSCOPS sample sets combined by direct genotyping and by imputing genotypes.
“P” indicates the p-value, and “P(R)” (or “P.R.”) indicates the p-value random effect. Both of these are p-values corresponding to a statistical test of whether the combined synergy index is equal to one but use different assumptions to derive the p-value. “P” is calculated using a fixed effects model, and “P(R)” is calculated using a random effects model.
“OR” indicates the odds ratio (synergy index) calculated from a fixed effects model, and “OR(R)” (or “OR.R.”) indicates the odds ratio (synergy index) calculated from a random effects model.

CC[C@H](C)C(=O)O[C@H]1C[C@H](O)C=C2C=C[C@H](C)[C@H](CC[C@@H](O)C[C@@H](O)CC(=O)O)[C@H]21 [Pravastatin, pravastatin]
OR(R) (rs483159 allele T DOMINANT Imputed): 1.4202
OR(R) (rs489441 allele G ADDITIVE Imputed): 1.4992
OR(R) (rs489441 allele G DOMINANT Imputed): 1.6072
OR(R) (rs937890 allele G (A1), DOMINANT, Imputed): 0.6731
OR(R) (rs949016 allele C (A1), ADDITIVE, Imputed): 1.5082
OR(R) (rs966583 allele A (A1), ADDITIVE, Imputed): 0.7272
OR(R) (rs966583 allele A (A1), DOMINANT, Imputed): 0.5916
OR(R) (rs974130 allele A (A1), RECESSIVE, Genotyped): 2.0112
OR(R) (rs977160 allele T (A1), ADDITIVE, Imputed): 1.5465
OR(R) (rs985375 allele A (A1), GENOTYPIC, Imputed): 2.8891
OR(R) (rs4760895 allele A ADDITIVE Imputed): 0.7392
OR(R) (rs4760895 allele A DOMINANT Imputed): 0.6285
OR(R) (rs4760895 allele A GENOTYPIC Imputed): 0.574
OR(R) (rs4764738 allele A ADDITIVE Imputed): 1.4051
OR(R) (rs4764738 allele A GENOTYPIC Imputed): 1.9728
OR(R) (rs4764974 allele T ADDITIVE Imputed): 1.3855
OR(R) (rs4764974 allele T GENOTYPIC Imputed): 1.9196
OR(R) (rs4798366 allele G RECESSIVE Imputed): 1.8332
OR(R) (rs4836502 allele T DOMINANT Imputed): 0.6712
OR(R) (rs4836507 allele C DOMINANT Imputed): 0.6775
OR(R) (rs4836744 allele A ADDITIVE Imputed): 0.7345
OR(R) (rs4836744 allele A DOMINANT Imputed): 0.6854
OR(R) (rs4848944 allele C RECESSIVE Genotyped): 0.5819
OR(R) (rs4851529 allele A DOMINANT Imputed): 0.6476
OR(R) (rs4851531 allele T DOMINANT Imputed): 0.6602
OR(R) (rs4858046 allele T GENOTYPIC Genotyped): 2.0533
OR(R) (rs4878214 allele A ADDITIVE Imputed): 0.6477
OR(R) (rs4880803 allele A ADDITIVE Imputed): 0.7694
OR(R) (rs4896568 allele T DOMINANT Imputed): 0.6231
OR(R) (rs4938851 allele T DOMINANT Imputed): 1.4515
OR(R) (rs4964416 allele C DOMINANT Imputed): 0.6251
OR(R) (rs5756669 allele C DOMINANT Imputed): 1.6531
OR(R) (rs6033138 allele C ADDITIVE Imputed): 1.3837
OR(R) (rs6033138 allele C GENOTYPIC Imputed): 1.9484
OR(R) (rs6033138 allele C RECESSIVE Imputed): 1.6769
OR(R) (rs6040619 allele C ADDITIVE Imputed): 1.3881
OR(R) (rs6040619 allele C GENOTYPIC Imputed): 2.0334
OR(R) (rs6040619 allele C RECESSIVE Imputed): 1.7879
OR(R) (rs6040625 allele T ADDITIVE Imputed): 1.3888
OR(R) (rs6040625 allele T GENOTYPIC Imputed): 2.0214
OR(R) (rs6040625 allele T RECESSIVE Imputed): 1.7684
OR(R) (rs6040630 allele A ADDITIVE Imputed): 1.3767
OR(R) (rs6040630 allele A GENOTYPIC Imputed): 1.9741
OR(R) (rs6040630 allele A RECESSIVE Imputed): 1.7241
OR(R) (rs6040633 allele A ADDITIVE Imputed): 1.3703
OR(R) (rs6040633 allele A GENOTYPIC Imputed): 1.9475
OR(R) (rs6040633 allele A RECESSIVE Imputed): 1.6999
OR(R) (rs6040634 allele T ADDITIVE Imputed): 1.3722
OR(R) (rs6040634 allele T GENOTYPIC Imputed): 1.9531
OR(R) (rs6040634 allele T RECESSIVE Imputed): 1.7021
OR(R) (rs6040636 allele T ADDITIVE Imputed): 1.3761
OR(R) (rs6040636 allele T GENOTYPIC Imputed): 1.9585
OR(R) (rs6040636 allele T RECESSIVE Imputed): 1.7021
OR(R) (rs6040638 allele C ADDITIVE Imputed): 1.3722
OR(R) (rs6040638 allele C GENOTYPIC Imputed): 1.9531
OR(R) (rs6040638 allele C RECESSIVE Imputed): 1.7021
OR(R) (rs6040644 allele A ADDITIVE Imputed): 1.3722
OR(R) (rs9309988 allele G (A1), DOMINANT, Imputed): 1.9381
OR(R) (rs9309989 allele C (A1), DOMINANT, Genotyped): 1.9491
OR(R) (rs9310221 allele A (A1), DOMINANT, Imputed): 1.8519
OR(R) (rs9327555 allele T (A1), DOMINANT, Imputed): 0.5753
OR(R) (rs9454967 allele G (A1), ADDITIVE, Imputed): 2.1926
OR(R) (rs9454967 allele G (A1), DOMINANT, Imputed): 2.4795
OR(R) (rs9471295 allele T (A1), DOMINANT, Imputed): 1.5391
OR(R) (rs9477007 allele A (A1), ADDITIVE, Imputed): 1.429
OR(R) (rs9477007 allele A (A1), GENOTYPIC, Imputed): 2.0759
OR(R) (rs9487279 allele T (A1), DOMINANT, Imputed): 0.5948
OR(R) (rs9555973 allele G (A1), ADDITIVE, Imputed): 0.5479
OR(R) (rs9555973 allele G (A1), DOMINANT, Imputed): 0.5157
OR(R) (rs9557510 allele G (A1), ADDITIVE, Imputed): 1.6102
OR(R) (rs9557510 allele G (A1), DOMINANT, Imputed): 1.7706
OR(R) (rs9560584 allele T (A1), DOMINANT, Imputed): 0.512
OR(R) (rs9588770 allele T (A1), DOMINANT, Imputed): 0.5187
OR(R) (rs9588848 allele C (A1), ADDITIVE, Imputed): 0.5369
OR(R) (rs9588848 allele C (A1), DOMINANT, Imputed): 0.5009
OR(R) (rs9812206 allele G (A1), ADDITIVE, Imputed): 0.4469
OR(R) (rs9812206 allele G (A1), DOMINANT, Imputed): 0.4369
OR(R) (rs9813552 allele G (A1), ADDITIVE, Imputed): 0.4493
OR(R) (rs9813552 allele G (A1), DOMINANT, Imputed): 0.4387
OR(R) (rs9815037 allele T (A1), ADDITIVE, Imputed): 0.4461
OR(R) (rs9815037 allele T (A1), DOMINANT, Imputed): 0.4354
OR(R) (rs9825349 allele A (A1), ADDITIVE, Imputed): 0.4461
OR(R) (rs9825349 allele A (A1), DOMINANT, Imputed): 0.4354
OR(R) (rs9834217 allele T (A1), ADDITIVE, Imputed): 0.4466
OR(R) (rs9834217 allele T (A1), DOMINANT, Imputed): 0.4359
OR(R) (rs9840460 allele T (A1), ADDITIVE, Imputed): 0.4461
OR(R) (rs9840460 allele T (A1), DOMINANT, Imputed): 0.4354
OR(R) (rs9840756 allele A (A1), ADDITIVE, Imputed): 0.4458
OR(R) (rs9840756 allele A (A1), DOMINANT, Imputed): 0.435
OR(R) (rs9844801 allele C (A1), DOMINANT, Imputed): 1.9381
OR(R) (rs9869187 allele C (A1), ADDITIVE, Imputed): 0.4651
OR(R) (rs9869187 allele C (A1), DOMINANT, Imputed): 0.4704
OR(R) (rs9872327 allele T (A1), DOMINANT, Imputed): 1.9381
OR(R) (rs9881685 allele A (A1), ADDITIVE, Imputed): 0.4438
OR(R) (rs9881685 allele A (A1), DOMINANT, Imputed): 0.4332
OR(R) (rs9909499 allele C (A1), DOMINANT, Imputed): 1.4669
OR(R) (rs9911847 allele G (A1), DOMINANT, Imputed): 0.6755
OR(R) (rs9946886 allele G (A1), RECESSIVE, Imputed): 0.3084
OR(R) (rs9958823 allele A (A1), ADDITIVE, Imputed): 1.5292
OR(R) (rs9965248 allele T (A1), ADDITIVE, Imputed): 1.4965
